Measurements published in ChEMBL document CHEMBL3774347, “Docking and Linking of Fragments To Discover Jumonji Histone Demethylase Inhibitors” (J Med Chem, 2016).
pIC50: −log10 of the molar value.

Molecular target: T1, Lysine-specific demethylase 4C (Homo sapiens, UniProt Q9H3R0)
T1 sequence (Q9H3R0 whole entry): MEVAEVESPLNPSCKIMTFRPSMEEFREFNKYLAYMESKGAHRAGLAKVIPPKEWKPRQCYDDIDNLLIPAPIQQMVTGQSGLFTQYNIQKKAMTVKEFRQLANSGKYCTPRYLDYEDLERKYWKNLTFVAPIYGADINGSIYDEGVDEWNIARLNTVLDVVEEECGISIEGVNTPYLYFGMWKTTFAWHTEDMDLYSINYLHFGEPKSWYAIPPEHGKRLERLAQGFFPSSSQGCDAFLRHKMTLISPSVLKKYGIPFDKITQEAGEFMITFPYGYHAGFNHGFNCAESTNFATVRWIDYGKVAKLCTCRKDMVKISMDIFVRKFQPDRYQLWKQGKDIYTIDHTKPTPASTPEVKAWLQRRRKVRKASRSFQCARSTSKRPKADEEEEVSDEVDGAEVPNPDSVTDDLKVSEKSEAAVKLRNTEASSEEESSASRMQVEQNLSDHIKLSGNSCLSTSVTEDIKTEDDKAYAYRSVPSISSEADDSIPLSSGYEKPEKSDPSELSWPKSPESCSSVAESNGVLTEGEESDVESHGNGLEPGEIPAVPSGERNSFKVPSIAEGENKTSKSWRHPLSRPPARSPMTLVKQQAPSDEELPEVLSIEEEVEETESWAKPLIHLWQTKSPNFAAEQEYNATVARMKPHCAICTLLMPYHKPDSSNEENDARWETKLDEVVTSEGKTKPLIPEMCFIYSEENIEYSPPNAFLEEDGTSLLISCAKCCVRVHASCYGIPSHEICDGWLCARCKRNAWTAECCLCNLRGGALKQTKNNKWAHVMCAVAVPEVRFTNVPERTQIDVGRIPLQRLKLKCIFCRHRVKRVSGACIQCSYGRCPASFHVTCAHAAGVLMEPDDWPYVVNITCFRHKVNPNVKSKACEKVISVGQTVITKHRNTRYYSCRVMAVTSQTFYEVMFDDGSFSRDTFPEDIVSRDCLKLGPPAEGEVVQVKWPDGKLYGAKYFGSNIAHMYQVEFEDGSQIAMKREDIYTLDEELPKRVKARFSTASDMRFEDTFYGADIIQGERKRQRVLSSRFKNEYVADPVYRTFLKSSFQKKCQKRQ
Assay: Inhibition of N-terminal His6-tagged KDM4C (1 to 352 residues) (unknown origin) expressed in Escherichia coli Rosetta 2(DE3)pLysS using biotinylated histone H3 (1 to 21 residues) lysine 9 trimethylated peptide/2 uM alpha-ketoglutarate as substrate/cofactor measured after 45 mins by TR-FRET assay
Conditions: read-out: IC50

With O=C(O)c1ccnc(-c2cc(NC(=O)c3ccc(O)cc3)ccc2O)c1 as the molecule, how does the pIC50 read?
Its pIC50 is 7.19.

How did the pIC50 turn out when COCC(=O)Nc1ccc(O)c(-c2cc(C(=O)O)ccn2)c1 was run?
The pIC50 was 6.85.

Cc1cc(C(=O)Nc2ccc(O)c(-c3cc(C(=O)O)ccn3)c2)no1 was tested. Which pIC50 did it give?
Its pIC50 is 7.19.

CC(=O)Nc1ccc(O)c(-c2cc(C(=O)O)ccn2)c1 was tested. Which pIC50 did it give?
Its pIC50 is 5.92.

COc1cccc(CC(=O)Nc2ccc(O)c(-c3cc(C(=O)O)ccn3)c2)c1 was tested. Which pIC50 did it give?
The pIC50 was 6.85.

Molecular target: T1, Lysine-specific demethylase 4C
Assay: Inhibition of N-terminal His6-tagged KDM4C (1 to 352 residues) (unknown origin) expressed in Escherichia coli Rosetta 2(DE3)pLysS using biotinylated histone H3 (1 to 21 residues) lysine 9 trimethylated peptide/50 uM alpha-ketoglutarate as substrate/cofactor measured after 45 mins by TR-FRET assay
Conditions: read-out: IC50

How did the pIC50 turn out when O=C(O)c1ccnc(-c2cc(NC(=O)c3ccc(O)cc3)ccc2O)c1 was run?
Its pIC50 is 5.59.

With COCC(=O)Nc1ccc(O)c(-c2cc(C(=O)O)ccn2)c1 as the molecule, how does the pIC50 read?
The pIC50 was 5.13.

How did the pIC50 turn out when Cc1cc(C(=O)Nc2ccc(O)c(-c3cc(C(=O)O)ccn3)c2)no1 was run?
Its pIC50 is 5.30.

With CC(=O)Nc1ccc(O)c(-c2cc(C(=O)O)ccn2)c1 as the molecule, how does the pIC50 read?
Its pIC50 is 4.40.

How did the pIC50 turn out when COc1cccc(CC(=O)Nc2ccc(O)c(-c3cc(C(=O)O)ccn3)c2)c1 was run?
The pIC50 was 5.82.

Molecular target: T1, Lysine-specific demethylase 4C
Assay: Inhibition of N-terminal His6-tagged KDM4C (1 to 352 residues) (unknown origin) expressed in Escherichia coli Rosetta 2(DE3)pLysS using ARTKQTARK(Me3)STGGKA peptide/100 uM alpha-ketoglutarate as substrate/cofactor incubated for 45 mins by MALDI assay
Conditions: not given

How did the pIC50 turn out when O=C(O)c1ccnc(-c2cc(NC(=O)c3ccc(O)cc3)ccc2O)c1 was run?
Its pIC50 is 5.23.

With COCC(=O)Nc1ccc(O)c(-c2cc(C(=O)O)ccn2)c1 as the molecule, how does the pIC50 read?
Its pIC50 is 4.33.

How did the pIC50 turn out when Cc1cc(C(=O)Nc2ccc(O)c(-c3cc(C(=O)O)ccn3)c2)no1 was run?
Its pIC50 is 4.80.

CC(=O)Nc1ccc(O)c(-c2cc(C(=O)O)ccn2)c1 was tested. Which pIC50 did it give?
Its pIC50 is 4.20.

COc1cccc(CC(=O)Nc2ccc(O)c(-c3cc(C(=O)O)ccn3)c2)c1 was tested. Which pIC50 did it give?
Its pIC50 is 5.14.

Molecular target: Lysine-specific demethylase 5A (Homo sapiens, UniProt P29375)
Assay: Inhibition of KDM5A (1 to 797 residues) (unknown origin) expressed in insect sf21 cells using ARTK(Me3)QTARKSTGGKAPRK peptide/ 100 uM alpha-ketoglutarate as substrate/cofactor incubated for 45 mins by MALDI assay
Conditions: not given

Lysine-specific demethylase 5A, sequence (P29375 whole entry, the tested form may be a part): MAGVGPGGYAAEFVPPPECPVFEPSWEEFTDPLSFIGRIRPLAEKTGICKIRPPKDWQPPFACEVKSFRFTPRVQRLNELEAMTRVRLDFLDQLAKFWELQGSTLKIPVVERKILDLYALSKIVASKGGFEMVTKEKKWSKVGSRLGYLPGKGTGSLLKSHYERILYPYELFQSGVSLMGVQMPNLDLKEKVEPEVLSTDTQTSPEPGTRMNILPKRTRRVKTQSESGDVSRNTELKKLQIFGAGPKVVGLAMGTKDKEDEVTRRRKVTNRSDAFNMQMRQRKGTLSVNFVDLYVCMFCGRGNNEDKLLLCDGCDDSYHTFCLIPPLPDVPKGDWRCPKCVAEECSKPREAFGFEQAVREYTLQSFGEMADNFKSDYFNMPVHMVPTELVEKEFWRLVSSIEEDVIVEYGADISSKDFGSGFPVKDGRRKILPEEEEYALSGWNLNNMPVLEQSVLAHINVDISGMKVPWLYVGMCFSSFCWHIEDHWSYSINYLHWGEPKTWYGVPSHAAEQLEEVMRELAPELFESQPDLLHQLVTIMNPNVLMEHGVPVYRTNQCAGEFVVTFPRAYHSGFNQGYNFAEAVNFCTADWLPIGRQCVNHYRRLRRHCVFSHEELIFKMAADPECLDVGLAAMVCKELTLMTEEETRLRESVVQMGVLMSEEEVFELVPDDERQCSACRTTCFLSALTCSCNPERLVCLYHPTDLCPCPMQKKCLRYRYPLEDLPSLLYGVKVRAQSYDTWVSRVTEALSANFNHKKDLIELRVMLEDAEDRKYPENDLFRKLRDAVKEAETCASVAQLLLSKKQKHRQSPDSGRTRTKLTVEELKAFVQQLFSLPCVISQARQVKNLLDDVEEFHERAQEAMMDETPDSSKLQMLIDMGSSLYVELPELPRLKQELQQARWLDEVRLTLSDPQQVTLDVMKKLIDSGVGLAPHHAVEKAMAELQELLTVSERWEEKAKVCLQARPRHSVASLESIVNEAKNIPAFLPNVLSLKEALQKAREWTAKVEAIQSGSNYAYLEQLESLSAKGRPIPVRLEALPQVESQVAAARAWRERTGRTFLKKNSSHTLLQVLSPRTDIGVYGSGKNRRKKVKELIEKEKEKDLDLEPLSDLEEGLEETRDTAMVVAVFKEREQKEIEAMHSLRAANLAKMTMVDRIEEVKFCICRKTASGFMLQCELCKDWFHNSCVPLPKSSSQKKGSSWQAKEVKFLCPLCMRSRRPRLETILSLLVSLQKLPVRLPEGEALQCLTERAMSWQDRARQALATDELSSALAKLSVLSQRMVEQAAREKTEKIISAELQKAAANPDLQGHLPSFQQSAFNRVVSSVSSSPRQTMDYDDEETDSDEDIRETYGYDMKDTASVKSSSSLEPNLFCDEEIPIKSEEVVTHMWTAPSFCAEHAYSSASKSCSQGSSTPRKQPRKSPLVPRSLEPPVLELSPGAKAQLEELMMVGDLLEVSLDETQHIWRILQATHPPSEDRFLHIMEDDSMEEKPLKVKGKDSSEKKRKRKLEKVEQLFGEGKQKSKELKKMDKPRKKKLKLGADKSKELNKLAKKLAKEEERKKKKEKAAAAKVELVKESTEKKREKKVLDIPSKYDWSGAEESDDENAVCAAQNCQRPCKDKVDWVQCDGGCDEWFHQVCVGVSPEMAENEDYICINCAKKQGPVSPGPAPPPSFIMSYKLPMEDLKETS

O=C(O)c1ccnc(-c2cc(NC(=O)c3ccc(O)cc3)ccc2O)c1 was tested. Which pIC50 did it give?
Its pIC50 is 4.35.

How did the pIC50 turn out when COCC(=O)Nc1ccc(O)c(-c2cc(C(=O)O)ccn2)c1 was run?
The pIC50 was 3.74.

With Cc1cc(C(=O)Nc2ccc(O)c(-c3cc(C(=O)O)ccn3)c2)no1 as the molecule, how does the pIC50 read?
The pIC50 was 4.64.

How did the pIC50 turn out when CC(=O)Nc1ccc(O)c(-c2cc(C(=O)O)ccn2)c1 was run?
Its pIC50 is 3.62.

With COc1cccc(CC(=O)Nc2ccc(O)c(-c3cc(C(=O)O)ccn3)c2)c1 as the molecule, how does the pIC50 read?
Its pIC50 is 4.28.

Molecular target: T1, Lysine-specific demethylase 4C
Assay: Inhibition of N-terminal His6-tagged KDM4C (1 to 352 residues) (unknown origin) expressed in Escherichia coli Rosetta 2(DE3)pLysS using biotinylated peptide/ 2 uM alpha-ketoglutarate as substrate/cofactor preincubated for 15 mins followed by substrate addition measured after 15 mins by alphascreen assay
Conditions: not given

With O=C(O)c1ccnc(-c2cc(NC(=O)c3ccc(O)cc3)ccc2O)c1 as the molecule, how does the pIC50 read?
The pIC50 was 4.92.

With COCC(=O)Nc1ccc(O)c(-c2cc(C(=O)O)ccn2)c1 as the molecule, how does the pIC50 read?
The pIC50 was 5.42.

Cc1cc(C(=O)Nc2ccc(O)c(-c3cc(C(=O)O)ccn3)c2)no1 was tested. Which pIC50 did it give?
The pIC50 was 5.26.

How did the pIC50 turn out when CC(=O)Nc1ccc(O)c(-c2cc(C(=O)O)ccn2)c1 was run?
Its pIC50 is 4.82.

COc1cccc(CC(=O)Nc2ccc(O)c(-c3cc(C(=O)O)ccn3)c2)c1 was tested. Which pIC50 did it give?
The pIC50 was 5.00.

Molecular target: Lysine-specific demethylase 5B (Homo sapiens, UniProt Q9UGL1)
Assay: Inhibition of KDM5B (unknown origin) expressed in Escherichia coli using H3 (1 to 21 residues) K4Me3-GGK-Biotin KDM5B Cognate Ligand/10 uM alpha-ketoglutarate as substrate/cofactor preincubated for 5 mins followed by substrate addition measured after 20 mins by alphascreen assay
Conditions: not given

Lysine-specific demethylase 5B, sequence (Q9UGL1 whole entry, the tested form may be a part): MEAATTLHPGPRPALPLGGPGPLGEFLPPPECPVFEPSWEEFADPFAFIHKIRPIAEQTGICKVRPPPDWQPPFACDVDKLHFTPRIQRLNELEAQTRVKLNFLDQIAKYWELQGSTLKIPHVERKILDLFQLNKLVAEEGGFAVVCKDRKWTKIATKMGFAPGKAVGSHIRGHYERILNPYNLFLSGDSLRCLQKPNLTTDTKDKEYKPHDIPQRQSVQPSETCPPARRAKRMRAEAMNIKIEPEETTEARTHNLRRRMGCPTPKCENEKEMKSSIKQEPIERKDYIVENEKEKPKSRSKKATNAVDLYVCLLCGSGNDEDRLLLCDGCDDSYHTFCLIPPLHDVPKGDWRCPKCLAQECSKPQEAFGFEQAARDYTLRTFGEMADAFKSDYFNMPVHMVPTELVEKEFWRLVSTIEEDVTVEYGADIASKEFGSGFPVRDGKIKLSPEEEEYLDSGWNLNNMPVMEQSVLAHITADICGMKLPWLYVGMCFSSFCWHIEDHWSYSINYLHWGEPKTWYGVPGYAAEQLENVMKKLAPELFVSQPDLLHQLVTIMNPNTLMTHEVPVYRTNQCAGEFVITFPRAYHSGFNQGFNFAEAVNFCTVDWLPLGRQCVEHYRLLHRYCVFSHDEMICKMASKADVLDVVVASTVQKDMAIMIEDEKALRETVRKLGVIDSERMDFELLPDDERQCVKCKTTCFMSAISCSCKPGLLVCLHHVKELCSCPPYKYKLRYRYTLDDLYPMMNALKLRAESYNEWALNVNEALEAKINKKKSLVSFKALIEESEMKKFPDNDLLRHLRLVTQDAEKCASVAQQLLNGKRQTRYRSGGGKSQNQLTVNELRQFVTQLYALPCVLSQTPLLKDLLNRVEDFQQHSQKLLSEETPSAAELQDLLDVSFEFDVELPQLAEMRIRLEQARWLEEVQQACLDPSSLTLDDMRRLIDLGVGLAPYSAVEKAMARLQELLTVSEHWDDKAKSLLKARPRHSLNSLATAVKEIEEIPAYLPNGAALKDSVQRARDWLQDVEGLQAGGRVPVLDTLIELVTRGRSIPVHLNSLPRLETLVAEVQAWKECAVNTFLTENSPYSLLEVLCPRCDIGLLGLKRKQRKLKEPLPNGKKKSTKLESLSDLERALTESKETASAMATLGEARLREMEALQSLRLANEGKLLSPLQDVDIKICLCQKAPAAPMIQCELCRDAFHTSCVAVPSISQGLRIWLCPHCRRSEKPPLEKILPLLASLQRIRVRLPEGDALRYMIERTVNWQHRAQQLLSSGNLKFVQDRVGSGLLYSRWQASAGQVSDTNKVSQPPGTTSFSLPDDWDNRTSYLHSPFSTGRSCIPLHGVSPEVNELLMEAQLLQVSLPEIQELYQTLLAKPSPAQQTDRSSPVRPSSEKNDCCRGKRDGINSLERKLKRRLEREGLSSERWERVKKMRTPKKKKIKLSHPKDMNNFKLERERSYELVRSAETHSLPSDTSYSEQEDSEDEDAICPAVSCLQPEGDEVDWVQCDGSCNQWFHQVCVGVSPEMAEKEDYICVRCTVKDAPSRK

O=C(O)c1ccnc(-c2cc(NC(=O)c3ccc(O)cc3)ccc2O)c1 was tested. Which pIC50 did it give?
Its pIC50 is 4.72.

COCC(=O)Nc1ccc(O)c(-c2cc(C(=O)O)ccn2)c1 was tested. Which pIC50 did it give?
Its pIC50 is 4.92.

How did the pIC50 turn out when Cc1cc(C(=O)Nc2ccc(O)c(-c3cc(C(=O)O)ccn3)c2)no1 was run?
Its pIC50 is 5.57.

How did the pIC50 turn out when CC(=O)Nc1ccc(O)c(-c2cc(C(=O)O)ccn2)c1 was run?
The pIC50 was 4.14.

COc1cccc(CC(=O)Nc2ccc(O)c(-c3cc(C(=O)O)ccn3)c2)c1 was tested. Which pIC50 did it give?
Its pIC50 is 4.66.
